Measured values reported in patent publication US11617726B2, “Method for preventing, treating, or ameliorating a microbial infection” (priority 2018, dated 2023).

System: Acinetobacter baumannii isolates
Test: Antimicrobial susceptibility test, disc diffusion method (CLSI M100-S24)
Format: cell-based
Set-up: key to Inhibition zone: “NZ” indicated that no zone of inhibition was observed
Settings: for Inhibition zone: disc diffusion
Protocol: A total of 33 non-duplicate, non-consecutive clinical isolates of Multi-Drug Resistant (MDR) Acinetobacter baumannii were collected from burn wards (“AB1-AB33”). Acinetobacter baumannii ATCC BAA 747 and Pseudomonas aeruginosa ATCC 27853 were used as control strains. The isolates were stored at −80° C. in trypticase soy broth containing 20% glycerol.
Antimicrobial susceptibility tests of the collection of isolates were conducted using the disc diffusion method. The experiment was performed according to the recommendations and guidelines of Clinical Laboratory Standard Institutes (CLSI M100-S24; 2014). Clinical and Laboratory Standards Institute (CLSI), “Performance standards for antimicrobial susceptibility testing; twenty-fourth informational supplement,” Document M100-S24, Clinical and Laboratory Standards Institute (CLSI), Wayne, Pa., USA, 2014.
A panel of commercial antibiotic discs (Amoxicillin (AMX), Amoxicillin/clavulanic acid (AMX/CLA), Piperacillin (PIP), Piperacillin/Tazobactam (PIP/TAZ), Ceftazidime (CAZ), Cefotaxime (CTX), Cefepime (FEP), Cefoxitin (FOX), Aztreonam (ATM), Imipenem (IP), Gentamicin (GEN), Amikacin (AK), Neomycin (NEO), Levofloxacin (LEV), Chloramphenicol (CHL), Tetracycline (TET), sulfamethoxazole/trimethoprim (SUL/TRI) was used for susceptibility testing. All commercial antibiotic discs were purchased from BBL (Becton Dickinson, USA).
Forty grams of Mueller-Hinton Agar (MHA) were suspended in 1 Liter distilled water and then boiled to dissolve the powder completely. The medium was sterilized by autoclaving at 121° C. for 15 min. After autoclaving, the medium was cooled to 45° C. and 25 mL of molten agar media was poured into sterile Petri dishes (90 mm diameter) to give a depth of about 4 mm. The surface of the agar was dried to remove excess moisture before use. The plates were stored at 4-8° C. in sealed plastic bags if not used immediately.
The inoculum suspension was prepared by selecting three to five morphologically similar colonies from overnight growth (16-24 h of incubation) on blood agar medium. […] The suspension density was measured using a UV spectrophotometer calibrated with a 0.5 McFarland standard. The density of the suspension was adjusted to McFarland 0.5 by addition of saline or more microorganisms. The adjusted inoculum suspension was used within 60 min of preparation.
A sterile cotton swab was dipped into the bacterial suspension and the excess fluid was removed by turning the swab against the inside wall of the tube to avoid over-inoculation of plates. The inoculum was spread evenly over the entire surface of the agar plate by swabbing in three directions.
The predetermined panel of antimicrobial disks was applied firmly on the inoculated Mueller-Hinton agar surface within 15 min of inoculation of the plates by a disc dispenser device. A maximum of six disks were accommodated on a 90-mm circular plate.
Within 15 min of application of antimicrobial disks, the plates were inverted and incubated aerobically at 35-37° C. for 18-20 h.
After incubation, inhibition zones were measured at the point where no obvious growth is detected by the unaided eye when the plate is held about 30 cm from the eye. Inhibition zone diameters were measured to the nearest millimeter with a ruler. The plates were read from the back of the plate with reflected light against a dark background. Zone diameters were interpreted and categorized as susceptible “S”, intermediate “I”, or resistant “R” according to the CLSI clinical breakpoint tables (see Table 1 and Table 2).

`CO/N=C(\C(=O)N[C@@H]1C(=O)N2C(C(=O)[O-])=C(C[N+]3(C)CCCC3)CS[C@H]12)c1csc(N)n1` [FEP, Cefepime] gave an Inhibition zone (isolate AB1) of 20 mm, an Inhibition zone (isolate AB2) of 16 mm and an Inhibition zone (isolate AB3) of 18 mm. For the same molecule, the Inhibition zone (isolate AB4) was 14 mm, the Inhibition zone (isolate AB5) was 7 mm and the Inhibition zone (isolate AB6) was 21 mm. The Inhibition zone (isolate AB7) was “NZ”, the Inhibition zone (isolate AB8) was “NZ” and the Inhibition zone (isolate AB9) was 22 mm. For the same molecule, the Inhibition zone (isolate AB10) was 7 mm, the Inhibition zone (isolate AB11) was “NZ” and the Inhibition zone (isolate AB12) was “NZ”. For the same molecule, the Inhibition zone (isolate AB13) was “NZ”, the Inhibition zone (isolate AB14) was “NZ” and the Inhibition zone (isolate AB15) was 8 mm. The Inhibition zone (isolate AB16) was 35 mm, the Inhibition zone (isolate AB17) was 11 mm and the Inhibition zone (isolate AB18) was “NZ”. The Inhibition zone (isolate AB19) was “NZ”, the Inhibition zone (isolate AB20) was “NZ” and the Inhibition zone (isolate AB21) was “NZ”. The Inhibition zone (isolate AB22) was “NZ”, the Inhibition zone (isolate AB23) was “NZ” and the Inhibition zone (isolate AB24) was 7 mm. It also gave an Inhibition zone (isolate AB25) of 10 mm, an Inhibition zone (isolate AB26) of 14 mm and an Inhibition zone (isolate AB27) of 8 mm. The Inhibition zone (isolate AB28) was “NZ”, the Inhibition zone (isolate AB29) was “NZ” and the Inhibition zone (isolate AB30) was “NZ”. The Inhibition zone (isolate AB31) was “NZ”, the Inhibition zone (isolate AB32) was “NZ” and the Inhibition zone (isolate AB33) was 18 mm.
For `CO[C@@]1(NC(=O)Cc2cccs2)C(=O)N2C(C(=O)O)=C(COC(N)=O)CS[C@@H]21` [FOX, Cefoxitin], the Inhibition zone (isolate AB1) was “NZ”, the Inhibition zone (isolate AB2) was “NZ” and the Inhibition zone (isolate AB3) was “NZ”. For the same molecule, the Inhibition zone (isolate AB4) was “NZ”, the Inhibition zone (isolate AB5) was “NZ” and the Inhibition zone (isolate AB6) was “NZ”. The Inhibition zone (isolate AB7) was “NZ”, the Inhibition zone (isolate AB8) was “NZ” and the Inhibition zone (isolate AB9) was “NZ”. For the same molecule, the Inhibition zone (isolate AB10) was “NZ”, the Inhibition zone (isolate AB11) was “NZ” and the Inhibition zone (isolate AB12) was “NZ”. For the same molecule, the Inhibition zone (isolate AB13) was “NZ”, the Inhibition zone (isolate AB14) was “NZ” and the Inhibition zone (isolate AB15) was “NZ”. The Inhibition zone (isolate AB16) was 22 mm, the Inhibition zone (isolate AB17) was “NZ” and the Inhibition zone (isolate AB18) was “NZ”. For the same molecule, the Inhibition zone (isolate AB19) was “NZ”, the Inhibition zone (isolate AB20) was “NZ” and the Inhibition zone (isolate AB21) was “NZ”. For the same molecule, the Inhibition zone (isolate AB22) was “NZ”, the Inhibition zone (isolate AB23) was “NZ” and the Inhibition zone (isolate AB24) was “NZ”. The Inhibition zone (isolate AB25) was “NZ”, the Inhibition zone (isolate AB26) was “NZ” and the Inhibition zone (isolate AB27) was “NZ”. For the same molecule, the Inhibition zone (isolate AB28) was “NZ”, the Inhibition zone (isolate AB29) was “NZ” and the Inhibition zone (isolate AB30) was “NZ”. The Inhibition zone (isolate AB31) was 9 mm, the Inhibition zone (isolate AB32) was “NZ” and the Inhibition zone (isolate AB33) was “NZ”.
In the case of `C[C@@H](O)[C@H]1C(=O)N2C(C(=O)O)=C(SCCN=CN)C[C@H]12` [IP, Imipenem], the Inhibition zone (isolate AB1) is reported as “NZ”, the Inhibition zone (isolate AB2) is reported as “NZ” and the Inhibition zone (isolate AB3) is reported as “NZ”. The Inhibition zone (isolate AB4) was “NZ”, the Inhibition zone (isolate AB5) was 8 mm and the Inhibition zone (isolate AB6) was 12 mm. The Inhibition zone (isolate AB7) was “NZ”, the Inhibition zone (isolate AB8) was 7 mm and the Inhibition zone (isolate AB9) was “NZ”. The Inhibition zone (isolate AB10) was “NZ”, the Inhibition zone (isolate AB11) was “NZ” and the Inhibition zone (isolate AB12) was 11 mm. The Inhibition zone (isolate AB13) was 9 mm, the Inhibition zone (isolate AB14) was 15 mm and the Inhibition zone (isolate AB15) was “NZ”. For the same molecule, the susceptibility category (isolate AB16, IP disc) was “S (Sensitive ≥22)”, the Inhibition zone (isolate AB16) was 34 mm and the Inhibition zone (isolate AB17) was 15 mm. For the same molecule, the Inhibition zone (isolate AB18) was “NZ”, the Inhibition zone (isolate AB19) was “NZ” and the Inhibition zone (isolate AB20) was 15 mm. The Inhibition zone (isolate AB21) was “NZ”, the Inhibition zone (isolate AB22) was 15 mm and the Inhibition zone (isolate AB23) was 20 mm. The Inhibition zone (isolate AB24) was “NZ”, the susceptibility category (isolate AB25, IP disc) was “S (Sensitive ≥22)” and the Inhibition zone (isolate AB25) was 23 mm. For the same molecule, the susceptibility category (isolate AB26, IP disc) was “S (Sensitive ≥22)”, the Inhibition zone (isolate AB26) was 22 mm and the Inhibition zone (isolate AB27) was 9 mm. It also gave an Inhibition zone (isolate AB28) of 8 mm, an Inhibition zone (isolate AB29) of 9 mm and an Inhibition zone (isolate AB30) of 9 mm. For the same molecule, the Inhibition zone (isolate AB31) was 9 mm, the Inhibition zone (isolate AB32) was 18 mm and the Inhibition zone (isolate AB33) was “NZ”.
`C[C@H]1COc2c(N3CCN(C)CC3)c(F)cc3c(=O)c(C(=O)O)cn1c23` [LEV, Levofloxacin] was tested, and the susceptibility category (isolate AB1, LEV disc) was “S (Sensitive ≥17)”, the Inhibition zone (isolate AB1) was 30 mm and the susceptibility category (isolate AB2, LEV disc) was “S (Sensitive ≥17)”. For the same molecule, the Inhibition zone (isolate AB2) was 30 mm, the susceptibility category (isolate AB3, LEV disc) was “S (Sensitive ≥17)” and the Inhibition zone (isolate AB3) was 29 mm. For the same molecule, the susceptibility category (isolate AB4, LEV disc) was “S (Sensitive ≥17)”, the Inhibition zone (isolate AB4) was 30 mm and the susceptibility category (isolate AB5, LEV disc) was “S (Sensitive ≥17)”. The Inhibition zone (isolate AB5) was 19 mm, the susceptibility category (isolate AB6, LEV disc) was “S (Sensitive ≥17)” and the Inhibition zone (isolate AB6) was 21 mm. The susceptibility category (isolate AB7, LEV disc) was “I (Intermediate 14-16)”, the Inhibition zone (isolate AB7) was 14 mm and the susceptibility category (isolate AB8, LEV disc) was “I (Intermediate 14-16)”. The Inhibition zone (isolate AB8) was 15 mm, the susceptibility category (isolate AB9, LEV disc) was “S (Sensitive ≥17)” and the Inhibition zone (isolate AB9) was 28 mm. The susceptibility category (isolate AB10, LEV disc) was “I (Intermediate 14-16)”, the Inhibition zone (isolate AB10) was 14 mm and the susceptibility category (isolate AB11, LEV disc) was “R (Resistant ≤13)”. For the same molecule, the Inhibition zone (isolate AB11) was 11 mm, the susceptibility category (isolate AB12, LEV disc) was “R (Resistant ≤13)” and the Inhibition zone (isolate AB12) was 10 mm. For the same molecule, the susceptibility category (isolate AB13, LEV disc) was “R (Resistant ≤13)”, the Inhibition zone (isolate AB13) was 8 mm and the susceptibility category (isolate AB14, LEV disc) was “R (Resistant ≤13)”. The Inhibition zone (isolate AB14) was 11 mm, the susceptibility category (isolate AB15, LEV disc) was “I (Intermediate 14-16)” and the Inhibition zone (isolate AB15) was 15 mm. The susceptibility category (isolate AB16, LEV disc) was “R (Resistant ≤13)”, the Inhibition zone (isolate AB16) was “NZ” and the susceptibility category (isolate AB17, LEV disc) was “R (Resistant ≤13)”. For the same molecule, the Inhibition zone (isolate AB17) was 11 mm, the susceptibility category (isolate AB18, LEV disc) was “R (Resistant ≤13)” and the Inhibition zone (isolate AB18) was 13 mm. The susceptibility category (isolate AB19, LEV disc) was “R (Resistant ≤13)”, the Inhibition zone (isolate AB19) was 11 mm and the susceptibility category (isolate AB20, LEV disc) was “R (Resistant ≤13)”. For the same molecule, the Inhibition zone (isolate AB20) was 13 mm, the susceptibility category (isolate AB21, LEV disc) was “I (Intermediate 14-16)” and the Inhibition zone (isolate AB21) was 14 mm. The susceptibility category (isolate AB22, LEV disc) was “I (Intermediate 14-16)”, the Inhibition zone (isolate AB22) was 14 mm and the susceptibility category (isolate AB23, LEV disc) was “R (Resistant ≤13)”. For the same molecule, the Inhibition zone (isolate AB23) was 11 mm, the susceptibility category (isolate AB24, LEV disc) was “R (Resistant ≤13)” and the Inhibition zone (isolate AB24) was 12 mm. For the same molecule, the susceptibility category (isolate AB25, LEV disc) was “I (Intermediate 14-16)”, the Inhibition zone (isolate AB25) was 14 mm and the susceptibility category (isolate AB26, LEV disc) was “R (Resistant ≤13)”. The Inhibition zone (isolate AB26) was “NZ”, the susceptibility category (isolate AB27, LEV disc) was “R (Resistant ≤13)” and the Inhibition zone (isolate AB27) was 8 mm. For the same molecule, the susceptibility category (isolate AB28, LEV disc) was “I (Intermediate 14-16)”, the Inhibition zone (isolate AB28) was 15 mm and the susceptibility category (isolate AB29, LEV disc) was “I (Intermediate 14-16)”. The Inhibition zone (isolate AB29) was 15 mm, the susceptibility category (isolate AB30, LEV disc) was “I (Intermediate 14-16)” and the Inhibition zone (isolate AB30) was 15 mm. The susceptibility category (isolate AB31, LEV disc) was “R (Resistant ≤13)”, the Inhibition zone (isolate AB31) was 10 mm and the susceptibility category (isolate AB32, LEV disc) was “S (Sensitive ≥17)”. For the same molecule, the Inhibition zone (isolate AB32) was 18 mm, the susceptibility category (isolate AB33, LEV disc) was “S (Sensitive ≥17)” and the Inhibition zone (isolate AB33) was 30 mm.
